{
  "source": "patent US6779656B2",
  "about": "“Polymerizable preparations based on epoxides that contain silicon” (3M Espe AG, priority 2000, dated 2004)",
  "experiment": "Ames test (ISO/FDIS 7405), mutagenicity test",
  "assay_type": "cell-based",
  "from_the_text": "The improved toxicity is manifested, for example, in a lower mutagenicity.",
  "note": "Read-outs that look alike come from different tables or passages of the source.",
  "data": [
    {"smiles": "O=C(OCC1CCC2OC2C1)C1CCC2OC2C1", "note": "(stereo not drawn) [3,4-epoxycyclohexylmethyl 3,4-epoxycyclohexanecarboxylate, reference compound]", "values": [
      {"measurement": "Ames test (ISO/FDIS 7405)", "setting": "mutagenicity", "value": "positive"}
    ]},
    {"smiles": "C[Si](C)(CC1CCC2OC2C1)CC1CCC2OC2C1", "note": "(stereo not drawn) [dimethylbis[2-(7-oxabicyclo[4.1.0]hept-3-yl)methyl]-silane]", "values": [
      {"measurement": "Ames test (ISO/FDIS 7405)", "value": "negative"}
    ]},
    {"smiles": "C[Si](CCC1CCC2OC2C1)(CCC1CCC2OC2C1)c1ccccc1", "note": "(stereo not drawn) [methylbis[2-(7-oxabicyclo[4.1.0]hept-3-yl)ethyl]phenyl-silane]", "values": [
      {"measurement": "Ames test (ISO/FDIS 7405)", "value": "negative"}
    ]}
  ]
}
